Seven compounds from ChEMBL document CHEMBL1126384, “Synthesis of reversed hydroxamic acids of indomethacin: dual inhibitors of cyclooxygenase and 5-lipoxygenase” (Bioorg Med Chem Lett, 1992) can be followed below.

pIC50: −log10 of the molar value.

Test [1] deals with T1, Polyunsaturated fatty acid 5-lipoxygenase (Rattus norvegicus, UniProt P12527).
T1 sequence (P12527 whole entry): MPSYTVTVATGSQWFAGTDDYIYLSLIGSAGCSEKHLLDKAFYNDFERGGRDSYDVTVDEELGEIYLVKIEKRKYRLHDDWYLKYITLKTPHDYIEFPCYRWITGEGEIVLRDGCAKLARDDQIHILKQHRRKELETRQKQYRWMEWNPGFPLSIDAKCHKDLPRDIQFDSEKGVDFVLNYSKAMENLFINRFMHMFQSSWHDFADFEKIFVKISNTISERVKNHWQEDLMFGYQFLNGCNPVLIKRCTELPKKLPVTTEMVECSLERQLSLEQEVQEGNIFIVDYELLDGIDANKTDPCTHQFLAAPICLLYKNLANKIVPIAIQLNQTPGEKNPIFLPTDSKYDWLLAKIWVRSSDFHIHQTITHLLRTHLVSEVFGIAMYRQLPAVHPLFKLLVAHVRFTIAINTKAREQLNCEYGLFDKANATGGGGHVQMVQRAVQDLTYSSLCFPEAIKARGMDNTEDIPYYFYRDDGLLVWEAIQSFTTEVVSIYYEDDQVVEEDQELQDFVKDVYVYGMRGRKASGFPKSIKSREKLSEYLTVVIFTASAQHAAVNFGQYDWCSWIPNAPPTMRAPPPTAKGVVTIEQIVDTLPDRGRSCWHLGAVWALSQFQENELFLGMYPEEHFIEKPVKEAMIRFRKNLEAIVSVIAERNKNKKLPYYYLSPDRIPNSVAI
In words: Tested for inhibition of 5-Lipoxygenase (ARBL) in calcium-stimulated rat basophilic leukemia cells(RBL-1). Type of test: cell-based.

In test [2] the target is T2, Cyclooxygenase (Rattus norvegicus, UniProt P35355+Q63921).
T2 sequence (P35355 whole entry): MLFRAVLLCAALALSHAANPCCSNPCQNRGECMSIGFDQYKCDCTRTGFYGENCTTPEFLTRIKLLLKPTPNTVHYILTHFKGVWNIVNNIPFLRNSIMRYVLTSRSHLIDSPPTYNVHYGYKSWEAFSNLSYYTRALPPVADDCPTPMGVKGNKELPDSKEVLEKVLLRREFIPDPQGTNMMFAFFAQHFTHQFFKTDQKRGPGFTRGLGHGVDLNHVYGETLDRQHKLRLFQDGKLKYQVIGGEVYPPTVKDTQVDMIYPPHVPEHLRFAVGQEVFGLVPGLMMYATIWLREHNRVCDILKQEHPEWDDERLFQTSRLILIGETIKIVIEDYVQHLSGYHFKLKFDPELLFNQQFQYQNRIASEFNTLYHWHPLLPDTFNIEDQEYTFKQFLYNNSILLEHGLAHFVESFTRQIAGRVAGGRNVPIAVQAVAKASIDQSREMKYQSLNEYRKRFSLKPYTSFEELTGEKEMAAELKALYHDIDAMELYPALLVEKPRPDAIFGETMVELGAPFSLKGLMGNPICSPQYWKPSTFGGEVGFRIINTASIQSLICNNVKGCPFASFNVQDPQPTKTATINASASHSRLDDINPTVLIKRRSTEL
T2 sequence (Q63921 whole entry): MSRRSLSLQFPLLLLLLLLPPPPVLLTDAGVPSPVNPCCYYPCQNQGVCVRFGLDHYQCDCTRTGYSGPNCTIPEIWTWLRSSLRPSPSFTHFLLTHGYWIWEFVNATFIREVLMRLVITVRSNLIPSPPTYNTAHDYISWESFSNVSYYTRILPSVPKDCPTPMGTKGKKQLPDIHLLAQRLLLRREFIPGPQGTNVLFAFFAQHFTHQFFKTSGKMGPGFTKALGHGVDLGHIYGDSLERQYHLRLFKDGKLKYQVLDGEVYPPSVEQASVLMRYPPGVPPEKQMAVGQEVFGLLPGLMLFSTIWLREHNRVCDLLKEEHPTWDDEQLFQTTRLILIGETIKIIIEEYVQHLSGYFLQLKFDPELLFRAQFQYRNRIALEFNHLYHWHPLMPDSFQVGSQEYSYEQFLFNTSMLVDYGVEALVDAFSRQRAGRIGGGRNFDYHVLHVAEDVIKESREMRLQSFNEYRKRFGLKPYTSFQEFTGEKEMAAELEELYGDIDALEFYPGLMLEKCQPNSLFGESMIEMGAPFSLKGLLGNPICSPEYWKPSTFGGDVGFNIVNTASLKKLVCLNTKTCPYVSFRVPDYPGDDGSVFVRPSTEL
The following applies: rbl-1.
Description: Tested for inhibition of cyclooxygenase (ARBC) in calcium-stimulated rat basophilic leukemia cells(RBL-1)

In the case of `CNC(=S)N(O)C(C)c1c(C)n(C(=O)c2ccc(Cl)cc2)c2ccc(OC)cc12` (configuration not stated), the pIC50 in test [1] was 6.24. In test [2], this compound displayed an IC50 of 7000 nM.
With `CNC(=S)N(O)Cc1c(C)n(C(=O)c2ccc(Cl)cc2)c2ccc(OC)cc12`, the IC50 in test [2] was determined as 7100 nM.
For the compound `COc1ccc2c(c1)c(C(C)N(O)C(C)=O)c(C)n2C(=O)c1ccc(Cl)cc1` (configuration not stated), the pIC50 in test [1] was 6.08. Further, the IC50 in test [2] was 2400 nM.
In the same order, the values of `COc1ccc2c(c1)c(C(C)N(O)C(N)=O)c(C)n2C(=O)c1ccc(Cl)cc1` (configuration not stated) are 5.85 and 890 nM.
In the same order, the values of `COc1ccc2c(c1)c(CN(O)C(N)=O)c(C)n2C(=O)c1ccc(Cl)cc1` are 6.47 and more than 20000 nM.
Turning to `COc1ccc2c(c1)c(CN(O)C(C)=O)c(C)n2C(=O)c1ccc(Cl)cc1`, in test [1], the negative logarithm of the IC50 (pIC50) was 5.85. This compound registered an IC50 in test [2] of 15000 nM.
With `COc1ccc2c(c1)c(CC(=O)O)c(C)n2C(=O)c1ccc(Cl)cc1` [INDOMETHACIN], the pIC50 in test [1] was less than 4.00.
